We go through one compound from paper PMC7999550, “Novel Multifunctional Ascorbic Triazole Derivatives for Amyloidogenic Pathway Inhibition, Anti-Inflammation, and Neuroprotection” (Molecules, 2021).

One data set concerns the target T1, amyloid-β (1-42) peptide (Homo sapiens, UniProt P05067).
T1 construct: 9 µL of 25 μM working solution of amyloid-β (1-42) peptide; purchased Anaspec, Fremont, CA, USA
The data set is described as follows: Amyloid aggregation inhibition assay (ThT). Type of data set: biochemical. As for the experimental part: The ascorbic derivatives ware evaluated for activities of amyloid β aggregation inhibition at a concentration of 400 µM. Briefly, in each well of transparent plate, 9 µL of 25 μM working solution of amyloid-β (1-42) peptide and 1 µL of test compound were gently mixed and then incubated in the dark at 37 °C for 48 h. After the incubation, 200 µL of 5 µM ThT (Sigma®, Saint Louis, MO, USA) in 50 mM Tris buffer (pH 7.4) was added to each well. Fluorescence was then measured at Ex = 446 nm and Em = 480 nm using a SpectraMax Gemini EM™, San Jose, CA, USA [26, 62]. Curcumin was used as a positive control, at a concentration of 100 µM.

In data set [1] the test system is P19-derived neurons. The data set is described as follows: Neuroprotective assay, serum-deprivation-induced oxidative stress (XTT). The class given is cell-based. As to conditions: 1 nM, p > 0.05. Here is the method:
(§1) P19 cells were grown in alpha minimal essential medium (α-MEM) supplemented with 7.5% newborn calf serum (NCS), 2.5% fetal bovine serum (FBS), and 1% antibiotics–antimycotic solution in a 5% CO2 humidified atmosphere at 37 °C. Cells in monolayer cultures were maintained in exponential growth by subculturing every two days.
Exponentially grown cultures were trypsinized and dissociated into single cells. P19 cells (2 × 10^6 cells/mL) were then suspended in 10 mL α-MEM supplemented with 5% FBS, 1% antibiotics–antimycotic solution, and 0.5 µM all transretinoic acid (RA) and seeded onto a 100-mm bacteriological culture dish. The cells formed large aggregates in suspension. After four days of RA treatment, the aggregates were dissociated by 5-mL glass measuring pipette and replated on poly-L-lysine-precoated multiwell plates (the multiwell plates were coated with 50 µg/mL poly-L-lysine, dissolved in PBS overnight, and sterilized under UV light for 30 min) at 7 × 10^4 cells/mL (150 µL/well in 96-well plate) in α-MEM supplemented with 10% FBS and 1% antibiotics–antimycotic solution and incubated for 24 h. […]
The assay was carried out with P19-derived neurons cultured in a 96-well plate by using the serum-deprivation method. […] Data were expressed as mean ± SEM (n = 3, each n was run in triplicate), with the medium as a control, representing 100% cell viability. […]
For orientation: Formazan colour is commonly taken as a measure of viable cells.

A further data set addresses T2, BACE1 (Homo sapiens, UniProt P56817).
T2 construct: purchased Sino Biological, Beijing, China
The data set is described as follows: β-Secretase (BACE1) inhibition assay (FRET). The class given is biochemical. The settings on record: at a concentration of 400 µM; mean ± SEM, n = 3. Here is the method:
All ascorbic derivatives (2a–2c and 5a–5c), at a concentration of 400 µM, were evaluated for β-secretase inhibitory activities by using the FRET assay. Briefly, the reaction composing 30 µL of 0.01 unit/µL BACE1 enzyme stock solution, 20 µL of 5% DMSO of test compound, 30 µL of sodium acetate buffer (pH 4.5), and 20 µL of 125 µM β-secretase substrate IV (Calbiochem®, San Diego, CA, USA) was incubated at 37 °C for 30 min. Fluorescence was then measured at Ex = 380 nm and Em = 510 nm using a SpectraMax Gemini EM™, San Jose, CA, USA [26, 61]. β-secretase inhibitor I (Anaspec®, Fremont, CA, USA) was used as a positive control, at a concentration of 100 µM. The experiments were performed in triplicate. For the compounds exerting inhibitory activities more than 20%, an IC50 value was further determined.

Data set [2] in a line: Antioxidant activity assay (DPPH). As for the experimental part: […] The reaction was a mixture of 70 µL of DPPH solution (500 µM in 80% methanol), 10 µL of 80% methanol, and 20 µL of test compound. The reaction was incubated at room temperature in the dark for 30 min. The absorbance was then measured at 517 nm using Infinite 200 Pro™ (Tecan). Ascorbic acid was used as a positive control.
(The DPPH test is a chemical assay of radical scavenging.)

In data set [3] the test system is P19-derived neurons. The data set is described as follows: Viability assay (XTT) on P19-derived neurons. The class given is cell-based. The settings on record: 18 h, nontoxic condition, versus 0.5% DMSO, derivatives at 1 nM. As for the experimental part:
as §1
Exponentially grown cultures were trypsinized and dissociated into single cells. P19 cells (2 × 10^6 cells/mL) were then suspended in 10 mL α-MEM supplemented with 5% FBS, 1% antibiotics–antimycotic solution, and 0.5 µM all transretinoic acid (RA) and seeded onto a 100-mm bacteriological culture dish. The cells formed large aggregates in suspension. After four days of RA treatment, the aggregates were dissociated by 5-mL glass measuring pipette and replated on poly-L-lysine-precoated multiwell plates (the multiwell plates were coated with 50 µg/mL poly-L-lysine, dissolved in PBS overnight, and sterilized under UV light for 30 min) at 7 × 10^4 cells/mL (150 µL/well in 96-well plate) in α-MEM supplemented with 10% FBS and 1% antibiotics–antimycotic solution and incubated for 24 h. Cytosine-1-β-D-arabinoside or Ara-C (10 µM) was added at day 1 after plating, and the medium was changed every two to three days. The differentiated neuronal cells, P19-derived neurons, were used after day 14 of the differentiation process.
The assay was carried out on P19-derived neurons cultured in a 96-well plate. After 14 days of the differentiation process, the α-MEM, supplemented with 10% FBS, 10 μM Ara-C, and 1% antibiotics–antimycotic solution, was removed and DMSO solutions of the sample, diluted with α-MEM supplemented with 10% FBS and 1% antibiotics–antimycotic solution in the presence of 10 μM Ara-C, were added to produce the concentrations of 10,000, 1000, 100, 10, and 1 nM. A concentration of DMSO was added to the cultures at 0.5% v/v. […] The OD value was determined by using a microplate reader at 450 nm. Data were expressed as mean ± SEM (n = 3, each n was run in triplicate), with the medium as a control, representing 100% cell viability. […]

T1 sequence (P05067 672-713 limits assumed): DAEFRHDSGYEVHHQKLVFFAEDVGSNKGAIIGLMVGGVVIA
T2 sequence (P56817 46-501): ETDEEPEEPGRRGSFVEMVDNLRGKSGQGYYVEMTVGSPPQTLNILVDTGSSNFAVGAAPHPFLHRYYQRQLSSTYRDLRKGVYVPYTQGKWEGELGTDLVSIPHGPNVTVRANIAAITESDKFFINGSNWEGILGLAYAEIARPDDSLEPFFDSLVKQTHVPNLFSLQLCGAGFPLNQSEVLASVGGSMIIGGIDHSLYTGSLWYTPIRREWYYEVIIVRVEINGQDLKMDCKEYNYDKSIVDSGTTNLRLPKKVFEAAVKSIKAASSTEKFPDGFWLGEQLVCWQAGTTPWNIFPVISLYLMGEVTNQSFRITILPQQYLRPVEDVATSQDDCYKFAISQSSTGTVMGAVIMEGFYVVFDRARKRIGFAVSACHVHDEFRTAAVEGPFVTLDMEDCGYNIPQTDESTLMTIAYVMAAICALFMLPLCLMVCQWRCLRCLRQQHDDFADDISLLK

Broadly, the IC50 is the concentration at which inhibition is half-maximal. High values mean weaker potency, low ones greater potency. As usually defined, the inhibition is the share of the control response that was lost under treatment. In the case of `O=C1O[C@H]([C@@H](O)COCc2cn(Cc3ccc(O)cc3)nn2)C(O)=C1O` [Compound 2a, (R)-3,4-Dihydroxy-5-((S)-1-hydroxy-2-((1-(4-hydroxybenzyl)-1H-1,2,3-triazol-4-yl)metho-xy)ethyl)furan-2(5H)-one], the results for the IC50 (against amyloid-β (1-42) peptide; in data set [2]) were 319 µM and 206 µM, respectively. In addition, the inhibition at 400 µM against amyloid-β (1-42) peptide (at a concentration of 400 µM, ThT, 48 h, mean ± SEM, n = 3) was 53 ± 0.6%; against BACE1, 6.8 ± 2.69%. For the same compound, in the data set with P19-derived neurons [1], the “neuroprotective activity compared with quercetin (positive control)” value is given as “no statistical differences”. Besides, the “Antioxidant %Inhibition (±SEM)” value in data set [2] (at a concentration of 400 µM, mean ± SEM, n = 3) is recorded as 66.54 ± 0.56 %. For the same compound, the “cytotoxicity / cell viability of P19-derived neurons” value in the data set on P19-derived neurons [3] is “significantly higher viability than 0.5% DMSO”.
